Reference: EP4603105A1, “PHARMACEUTICAL COMPOSITION CONTAINING CYCLIC COMPOUND HAVING SELECTIVE KRAS INHIBITORY EFFECT AGAINST HRAS AND NRAS” (CHUGAI SEIYAKU KABUSHIKI KAISHA, priority 2022, dated 2024)

Tests used:
[1] = molecular target: GDP-bound KRAS wild-type protein (Homo sapiens, UniProt P01116); test: Binding to KRAS by surface plasmon resonance (SPR), dissociation constant KD; details: 1:1 binding model
Method in brief: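 Running buffer contained 10 µM GDP and 10 mM MgCl2 to keep RAS in the GDP state, with 4% DMSO at pH 7.4. Compounds were flowed at 100 µL/min in 75 s steps of rising concentration over captured biotin-Avi RAS at 30°C. Sensorgrams were fitted 1:1 for KD.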

[2] = molecular target: GDP-bound NRAS wild-type protein (Homo sapiens, UniProt P01111); test: Binding to NRAS by surface plasmon resonance (SPR), KD and KD ratio to KRAS; details: ratio of KD for GDP-bound NRAS wild-type protein to KD for KRAS
Method in brief: (§1)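 GDP-loaded biotinylated Avi-tag RAS proteins (E. coli-expressed) captured on a Biotin CAPture chip at ~100–300 RU; single-cycle kinetics at 30°C, 100 µL/min, 75 s injections of rising compound concentrations. HBS pH 7.4 running buffer with 1 mM DTT, 10 mM MgCl2, 10 µM GDP, 4% DMSO. KD from 1:1 binding fit.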

HRAS wild-type protein = HRAS wild-type protein (Homo sapiens, UniProt P01112); test: Binding to HRAS by surface plasmon resonance (SPR), KD and KD ratio to KRAS; details: ratio of KD for HRAS wild-type protein to KD for KRAS
Method in brief: as §1

[3] = system: human lung cancer strain NCI-H441; type: cell-based
Method in brief: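 Readout: […] after the ATP-based reagent. Compound: serial dilutions in dimethyl sulfoxide.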

HRAS wild-type protein, sequence (P01112 whole entry): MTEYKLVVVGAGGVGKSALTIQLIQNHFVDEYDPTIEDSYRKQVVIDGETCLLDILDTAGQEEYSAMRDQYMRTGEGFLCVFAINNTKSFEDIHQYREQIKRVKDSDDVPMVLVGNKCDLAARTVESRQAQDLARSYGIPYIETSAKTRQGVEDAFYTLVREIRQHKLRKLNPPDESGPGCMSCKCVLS
GDP-bound NRAS wild-type protein, sequence (P01111 whole entry): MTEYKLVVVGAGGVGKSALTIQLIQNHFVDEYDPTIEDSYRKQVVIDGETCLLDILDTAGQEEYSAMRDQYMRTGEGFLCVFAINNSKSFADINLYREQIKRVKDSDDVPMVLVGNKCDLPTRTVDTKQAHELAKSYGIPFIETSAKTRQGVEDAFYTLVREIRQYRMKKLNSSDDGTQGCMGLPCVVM
GDP-bound KRAS wild-type protein, sequence (P01116 1-188 isoform P01116-2): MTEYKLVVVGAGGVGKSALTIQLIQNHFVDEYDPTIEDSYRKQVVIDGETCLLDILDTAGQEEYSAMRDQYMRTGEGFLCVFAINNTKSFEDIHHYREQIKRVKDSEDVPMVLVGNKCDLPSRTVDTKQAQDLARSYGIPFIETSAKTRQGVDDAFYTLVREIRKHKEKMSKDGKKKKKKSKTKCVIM

| SMILES | Kd [1] [nM] | NRAS /KRAS [2] | HRAS /KRAS (HRAS wild-type protein) | IC50 [3] [nM] |
| --- | --- | --- | --- | --- |
| CCO[C@@H]1C[C@H]2C(=O)NC3(CC(C)(C)C3)C(=O)N(C)[C@@H](C3CCCC3)C(=O)N(C)[C@H](C(=O)N(C)CC)CC(=O)N(C)[C@@H](CC(C)C)C(=O)N[C@@H]([C@@H](C)CC)C(=O)N(C)CC(=O)N(C)[C@H]3C/C=C\CCN(C3=O)[C@@H](Cc3ccc(C(F)F)cc3)C(=O)N(C)CC(=O)N[C@@H](CCc3ccc(C4CC4)c(C)c3)C(=O)N2C1 [PP3156] | 2 | A (a compound having 10 or more and less than 20 is denoted as A) | A (a compound having 10 or more and less than 20 is denoted as A) | 63.8 |
| CCO[C@@H]1C[C@H]2C(=O)NC3(CC(C)(C)C3)C(=O)N(C)[C@@H](C3CCCC3)C(=O)N(C)[C@H](C(=O)N(C)CC)CC(=O)N(C)[C@@H](CC(C)C)C(=O)N[C@@H]([C@@H](C)CC)C(=O)N(C)CC(=O)N(C)[C@H]3C/C=C\CCN(C3=O)[C@@H](Cc3ccc(C(F)F)cc3)C(=O)N(C)CC(=O)N[C@@H](CCc3ccc(CC)c(F)c3)C(=O)N2C1 [PP3157] | 2.1 | A (a compound having 10 or more and less than 20 is denoted as A) | A (a compound having 10 or more and less than 20 is denoted as A) | 88.5 |
| CCO[C@@H]1C[C@H]2C(=O)NC3(CC(C)(C)C3)C(=O)N(C)[C@@H](C3CCCC3)C(=O)N(C)[C@H](C(=O)N(C)CC)CC(=O)N(C)[C@@H]([C@@H](C)OC)C(=O)N[C@@H]([C@@H](C)CC)C(=O)N(C)CC(=O)N(C)[C@H]3C/C=C\CCN(C3=O)[C@@H](Cc3ccc(C(F)(F)F)cc3)C(=O)N(C)CC(=O)N[C@@H](CCc3ccc(C(F)(F)F)c(OC)c3)C(=O)N2C1 [PP3158] | 0.076 | A (a compound having 10 or more and less than 20 is denoted as A) | A (a compound having 10 or more and less than 20 is denoted as A) | 9.7 |
| CCO[C@@H]1C[C@H]2C(=O)NC3(CC(C)(C)C3)C(=O)N(C)[C@@H](C3CCCC3)C(=O)N(C)[C@H](C(=O)N(C)CC)CC(=O)N(C)[C@@H]([C@H](C)OC)C(=O)N[C@@H]([C@@H](C)CC)C(=O)N(C3CC3)CC(=O)N(C)[C@H]3C/C=C\CCN(C3=O)[C@@H](Cc3ccc(C)cc3)C(=O)N(C)CC(=O)N[C@@H](CCc3ccc(C(F)(F)F)c(Cl)c3)C(=O)N2C1 [PP3159] | 0.6 | A (a compound having 10 or more and less than 20 is denoted as A) | A (a compound having 10 or more and less than 20 is denoted as A) | 50.1 |
| CCO[C@@H]1C[C@H]2C(=O)NC3(CC(C)(C)C3)C(=O)N(C)[C@@H](C3CCCC3)C(=O)N(C)[C@H](C(=O)N(C)CC)CC(=O)N(C)[C@@H]([C@@H](C)OC)C(=O)N[C@@H]([C@@H](C)CC)C(=O)N(C)CC(=O)N(C)[C@H]3C/C=C\CCN(C3=O)[C@@H](Cc3ccc(C(F)(F)F)cc3)C(=O)N(C)CC(=O)N[C@@H](CCc3cc(F)c(C(F)(F)F)c(F)c3)C(=O)N2C1 [PP3160] | 0.07 | A (a compound having 10 or more and less than 20 is denoted as A) | A (a compound having 10 or more and less than 20 is denoted as A) | 13.2 |
| CCO[C@@H]1C[C@H]2C(=O)NC3(CC(C)(C)C3)C(=O)N(C)[C@@H](C3CCCC3)C(=O)N(C)[C@H](C(=O)N(C)CC)CC(=O)N(C)[C@@H]([C@H](C)OC)C(=O)N[C@@H]([C@@H](C)CC)C(=O)N3CCC[C@H]3C(=O)N(C)[C@H]3C/C=C\CCN(C3=O)[C@@H](Cc3ccc(C)cc3)C(=O)N(C)CC(=O)N[C@@H](CCc3ccc(C(F)(F)F)c(OC)c3)C(=O)N2C1 [PP3161] | 2.3 | A (a compound having 10 or more and less than 20 is denoted as A) | A (a compound having 10 or more and less than 20 is denoted as A) | 150 |
| CCO[C@@H]1C[C@H]2C(=O)NC3(CC(C)(C)C3)C(=O)N(C)[C@@H](C3CCCC3)C(=O)N(C)[C@H](C(=O)N(C)CC)CC(=O)N(C)[C@@H]([C@H](C)OC)C(=O)N[C@@H]([C@@H](C)CC)C(=O)N3CCC[C@H]3C(=O)N(C)[C@H]3C/C=C\CCN(C3=O)[C@@H](Cc3ccc(C)cc3)C(=O)N(C)CC(=O)N[C@@H](CCc3cc(F)c(C(F)(F)F)c(F)c3)C(=O)N2C1 [PP3163] | 1.8 | A (a compound having 10 or more and less than 20 is denoted as A) | A (a compound having 10 or more and less than 20 is denoted as A) | 296 |
| CCO[C@@H]1C[C@H]2C(=O)NC3(CC(C)(C)C3)C(=O)N(C)[C@@H](C3CCCC3)C(=O)N(C)[C@H](C(=O)N(C)C)CC(=O)N(C)[C@@H]([C@H](C)OC)C(=O)N[C@@H]([C@@H](C)CC)C(=O)N(C3CC3)CC(=O)N(C)[C@H]3C/C=C\CCN(C3=O)[C@@H](Cc3ccc(C(F)(F)F)cc3)C(=O)N(C)CC(=O)N[C@@H](CCc3ccc(C(F)(F)F)c(Cl)c3)C(=O)N2C1 [PP3177] | 0.49 | A (a compound having 10 or more and less than 20 is denoted as A) | A (a compound having 10 or more and less than 20 is denoted as A) | 21.6 |
| CCO[C@@H]1C[C@H]2C(=O)NC3(CC(C)(C)C3)C(=O)N(C)[C@@H](C3CCCC3)C(=O)N(C)[C@H](C(=O)N(C)CC)CC(=O)N(C)[C@@H]([C@@H](C)OC)C(=O)N[C@@H]([C@@H](C)CC)C(=O)N(C)CC(=O)N(C)[C@H]3C/C=C\CCN(C3=O)[C@@H](Cc3ccc(C)cc3)C(=O)N(C)CC(=O)N[C@@H](CCc3cc(F)c(C(F)(F)F)c(F)c3)C(=O)N2C1 [PP3178] | 0.092 | A (a compound having 10 or more and less than 20 is denoted as A) | A (a compound having 10 or more and less than 20 is denoted as A) | 11.6 |
| CCO[C@@H]1C[C@H]2C(=O)NC3(CC(C)(C)C3)C(=O)N(C)[C@@H](C3CCCC3)C(=O)N(C)[C@H](C(=O)N(C)C)CC(=O)N(C)[C@@H]([C@H](C)OC)C(=O)N[C@@H]([C@@H](C)CC)C(=O)N3CCC[C@H]3C(=O)N(C)[C@H]3C/C=C\CCN(C3=O)[C@@H](Cc3ccc(C(F)(F)F)cc3)C(=O)N(C)CC(=O)N[C@@H](CCc3ccc(C(F)(F)F)c(OC)c3)C(=O)N2C1 [PP3179] | 0.77 | A (a compound having 10 or more and less than 20 is denoted as A) | A (a compound having 10 or more and less than 20 is denoted as A) | 70.9 |
| CCO[C@@H]1C[C@H]2C(=O)NC3(CC(C)(C)C3)C(=O)N(C)[C@@H](C3CCCC3)C(=O)N(C)[C@H](C(=O)N(C)CC)CC(=O)N(C)[C@@H]([C@@H](C)OC)C(=O)N[C@@H]([C@@H](C)CC)C(=O)N(C)CC(=O)N(C)[C@H]3C/C=C\CCN(C3=O)[C@@H](Cc3ccc(C)cc3)C(=O)N(C)CC(=O)N[C@@H](CCc3ccc(C(F)(F)F)c(Cl)c3)C(=O)N2C1 [PP3180] | 0.37 | B (a compound having 3 or more and less than 10 is denoted as B) | B (a compound having 3 or more and less than 10 is denoted as B) | 13.3 |
| CCO[C@@H]1C[C@H]2C(=O)NC3(CC(C)(C)C3)C(=O)N(C)[C@@H](C3CCCC3)C(=O)N(C)[C@H](C(=O)N(C)C)CC(=O)N(C)[C@@H]([C@H](C)OC)C(=O)N[C@@H]([C@@H](C)CC)C(=O)N3CCC[C@H]3C(=O)N(C)[C@H]3C/C=C\CCN(C3=O)[C@@H](Cc3ccc(C(F)(F)F)cc3)C(=O)N(C)CC(=O)N[C@@H](CCc3cc(F)c(C(F)(F)F)c(F)c3)C(=O)N2C1 [PP3181] | 0.96 | A (a compound having 10 or more and less than 20 is denoted as A) | B (a compound having 3 or more and less than 10 is denoted as B) | 51 |
| CCO[C@@H]1C[C@H]2C(=O)NC3(CC(C)(C)C3)C(=O)N(C)[C@@H](C3CCCC3)C(=O)N(C)[C@H](C(=O)N(C)CC)CC(=O)N(C)[C@@H]([C@@H](C)OC)C(=O)N[C@@H]([C@@H](C)CC)C(=O)N(C3CC3)CC(=O)N(C)[C@H]3C/C=C\CCN(C3=O)[C@@H](Cc3ccc(C)cc3)C(=O)N(C)CC(=O)N[C@@H](CCc3ccc(C(F)(F)F)c(OC)c3)C(=O)N2C1 [PP3182] | 0.87 | A (a compound having 10 or more and less than 20 is denoted as A) | A (a compound having 10 or more and less than 20 is denoted as A) | 76.6 |
| CCO[C@@H]1C[C@H]2C(=O)NC3(CC(C)(C)C3)C(=O)N(C)[C@@H](C3CCCC3)C(=O)N(C)[C@H](C(=O)N(C)C)CC(=O)N(C)[C@@H]([C@H](C)OC)C(=O)N[C@@H]([C@@H](C)CC)C(=O)N3CCC[C@H]3C(=O)N(C)[C@H]3C/C=C\CCN(C3=O)[C@@H](Cc3ccc(C(F)(F)F)cc3)C(=O)N(C)CC(=O)N[C@@H](CCc3ccc(C(F)(F)F)c(Cl)c3)C(=O)N2C1 [PP3183] | 1.2 | B (a compound having 3 or more and less than 10 is denoted as B) | B (a compound having 3 or more and less than 10 is denoted as B) | 63.6 |
